Results: patent US11261186B2, “Biaryl derivative as GPR120 agonist” (LG CHEM, LTD., priority 2014, dated 2022)

Target: T1, hGPR120 (Homo sapiens, UniProt Q5NUL3)
T1 construct: expressed in transfected cells; host or cells: CHO-K1
T1 sequence (Q5NUL3 1-361): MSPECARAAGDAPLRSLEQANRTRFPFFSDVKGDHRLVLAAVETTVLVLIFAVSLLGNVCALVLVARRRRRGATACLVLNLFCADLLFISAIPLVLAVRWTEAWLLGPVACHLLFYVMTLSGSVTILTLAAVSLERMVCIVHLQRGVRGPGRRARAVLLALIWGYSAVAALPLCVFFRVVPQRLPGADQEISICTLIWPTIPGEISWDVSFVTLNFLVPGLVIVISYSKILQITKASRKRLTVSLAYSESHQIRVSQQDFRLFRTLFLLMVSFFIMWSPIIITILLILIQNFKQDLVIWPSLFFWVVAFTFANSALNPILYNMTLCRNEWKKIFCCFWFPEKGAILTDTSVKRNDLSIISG
Test: Measurement of Activity of GPR120 Agonist (Cell-Based Assay), Calcium 5 dye fluorescence
Conditions: CHO-K1 cells expressing Ga16 and hGPR120
Procedure, shortened: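 Gα16/hGPR120 CHO-K1; 18 h plating, 37 °C, 5% CO2; Calcium 5 dye load 1 h; agonist serial dilution, 0.5% DMSO final; fluor Ex485/Em525; response as % of 1% DMSO vehicle.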

Compound	EC50
CC(CCCC(=O)O)c1c(F)cc(-c2cncc(OC3CCC3)n2)cc1F (centres unmarked) [Example 399, 5-[4-[6-(cyclobutoxy)pyrazin-2-yl]-2,6-difluoro-phenyl]hexanoic acid]	< 200 nM
Cc1cc(OC2CCC2)nc(-c2cc(F)c(OCC3CC3C(=O)O)c(Cl)c2)n1 (centres unmarked) [Example 553, 2-[2-chloro-4-(4-cyclobutoxy-6-methyl-pyrimidin-2-yl)-6-fluoro-phenoxymethyl]-cyclopropanecarboxylic acid]	200 to 2000 nM
CC(C)Sc1ncccc1-c1ccc(N2CCC(CC(=O)O)CC2)c(F)c1 [Example 138, 2-[1-[2-fluoro-4-(2-isopropylsulfanyl-3-pyridyl)phenyl]-4-piperidyl]acetic acid]	200 to 2000 nM
Oc1cc(COc2c(F)cc(-c3cccnc3OCC3CCC3)cc2F)on1 [Example 77, 5-[[4-[2-(cyclobutylmethoxy)-3-pyridyl]-2,6-difluoro-phenoxy]methyl]isoxazol-3-ol]	< 200 nM
Cc1cc(-c2cc(F)c(C(C)CCCC(=O)O)c(F)c2)nc(OC2CCC2)n1 (centres unmarked) [Example 418, 5-[4-(2-cyclobutoxy-6-methyl-pyrimidin-4-yl)-2,6-difluoro-phenyl]-hexanoic acid]	< 200 nM
O=C(O)C1CC1CCNc1c(F)cc(-c2cccnc2SC2CCCC2)cc1F (centres unmarked) [Example 128, 2-[2-[4-(2-cyclopentylsulfanyl-3-pyridyl)-2,6-difluoro-anilino]ethyl]cyclopropanecarboxylic acid]	< 200 nM
O=C(O)C1CC1COc1c(F)cc(-c2cccc(OC3CCC3)n2)cc1F (centres unmarked) [Example 544, 2-[4-(6-cyclobutoxy-pyridin-2-yl)-2,6-difluoro-phenoxymethyl]-cyclopropanecarboxylic acid]	< 200 nM
CC(C)Sc1cccc(-c2ccc3cc(CCC(=O)O)ccc3c2)n1 [Example 140, 3-[6-(6-isopropylsulfanyl-pyridin-2-yl)-naphthalen-2-yl]-propanoic acid]	200 to 2000 nM
O=C(O)CC1CCN(c2ccc(-c3cccnc3OC3CCCC3)cc2F)CC1 [Example 139, 2-[1-[4-[2-(cyclopentoxy)-3-pyridyl]-2-fluoro-phenyl]-4-piperidyl]acetic acid]	200 to 2000 nM
CC(C)Sc1ncccc1-c1ccc2cc(OCCCC(=O)O)ccc2c1 [Example 5, 4-[6-(2-isopropylsulfanyl-pyridin-3-yl)-naphthalen-2-yloxy]-butyric acid]	200 to 2000 nM
CC(C)COCc1cc(-c2cc(F)c(OCCCC(=O)O)c(F)c2)cs1 [Example 572, 4-[2,6-difluoro-4-(5-isobutoxymethyl-thiophen-3-yl)-phenoxy]-butanoic acid]	< 200 nM
O=C(O)CC1CN(c2c(F)cc(-c3cncc(OC4CCC4)n3)cc2F)C1 [Example 334, 2-[1-[4-[6-(cyclobutoxy)pyrazin-2-yl]-2,6-difluoro-phenyl]azetidin-3-yl]acetic acid]	< 200 nM
O=C(O)CC1CCN(c2c(F)cc(-c3nccc(OC4CCC4)n3)cc2F)C1 (centres unmarked) [Example 579, {1-[4-(4-cyclobutoxy-pyrimidin-2-yl)-2,6-difluoro-phenyl]-pyrrolidin-3-yl}-acetic acid]	< 200 nM
CC(C)CCOc1ccnc(-c2cc(F)c(N3CCC(CC(=O)O)CC3)c(F)c2)n1 [Example 599, (1-{2,6-difluoro-4-[4-(3-methyl-butoxy)-pyrimidin-2-yl]-phenyl}-piperidin-4-yl)-acetic acid]	200 to 2000 nM
O=C(O)CCCC1(c2c(F)cc(-c3cccnc3OCC3CCC3)cc2F)CC1 [Example 169, 4-{1-[4-(2-cyclobutylmethoxy-pyridin-3-yl)-2,6-difluoro-phenyl]-cyclopropyl}-butyric acid]	200 to 2000 nM
CC(C)Sc1ncccc1-c1cc(F)c(N2CCC3(CC2)CC3C(=O)O)c(F)c1 (centres unmarked) [Example 110, 6-[2,6-difluoro-4-(2-isopropylsulfanyl-3-pyridyl)phenyl]-6-azaspiro[2.5]octan-2-carboxylic acid]	200 to 2000 nM

Results, then the molecule that gave them:

EC50	Compound
< 200 nM	CN(CCCC(=O)O)c1c(F)cc(-c2cccnc2OC2CCCC2)cc1F [Example 196, 4-{[4-(2-cyclopentyloxy-pyridin-3-yl)-2,6-difluoro-phenyl]-methyl-amino}-butyric acid]
200 to 2000 nM	O=C(O)CC1CCN(c2c(F)cc(-c3ncc(F)c(OCC4CC4)n3)cc2F)C1 (centres unmarked) [Example 593, {1-[4-(4-cyclopropylmethoxy-5-fluoro-pyrimidin-2-yl)-2,6-difluoro-phenyl]-pyrrolidin-3-yl}-acetic acid]
2000 to 20000 nM	O=C(O)CC1CCN(c2c(F)cc(-c3nc(Oc4ccc(F)cc4)cc(C(F)(F)F)n3)cc2F)CC1 [Example 619, (1-{2,6-difluoro-4-[4-(4-fluoro-phenoxy)-6-trifluoromethyl-pyrimidin-2-yl]-phenyl}-piperidin-4-yl)-acetic acid]
< 200 nM	O=C(O)CC1CCN(c2c(F)cc(-c3cncc(OCC4CC4)n3)cc2F)CC1 [Example 333, 2-[1-[4-[6-(cyclopropylmethoxy)pyrazin-2-yl]-2,6-difluoro-phenyl]-4-piperidyl]acetic acid]
200 to 2000 nM	O=C(O)CC1CCN(c2c(F)cc(-c3nccc(Oc4ccccn4)n3)cc2F)CC1 [Example 609, 2-[1-[2,6-difluoro-4-[4-(2-pyridyloxy)pyrimidin-2-yl]phenyl]-4-piperidyl]acetic acid]
< 200 nM	O=C(O)CC1CCN(c2c(F)cc(-c3cncc(OCC4CC4)n3)cc2F)C1 (centres unmarked) [Example 580, {1-[4-(6-cyclopropylmethoxy-pyrazin-2-yl)-2,6-difluoro-phenyl]-pyrrolidin-3-yl}-acetic acid]
200 to 2000 nM	COc1cccc2c1ccn2-c1cc(F)c(OCCCC(=O)O)c(F)c1 [Example 478, 4-[2,6-difluoro-4-(4-methoxyindol-1-yl)phenoxy]butanoic acid]
< 200 nM	O=C(O)CCC1CC1c1c(F)cc(-c2cccnc2OCC2CCC2)cc1F (centres unmarked) [Example 189, 3-{2-[4-(2-cyclobutylmethoxy-pyridin-3-yl)-2,6-difluoro-phenyl]-cyclopropyl}-propanoic acid]
200 to 2000 nM	CN(CCCC(=O)O)c1c(F)cc(-c2ccc(COCC3CC3)o2)cc1F [Example 473, 4-[4-[5-(cyclopropylmethoxymethyl)-2-furyl]-2,6-difluoro-N-methyl-anilino]butanoic acid]
< 200 nM	O=C(O)CCCOc1c(F)cc(-c2csc(OCC3CC3)n2)cc1Cl [Example 427, 4-[2-chloro-4-(2-cyclopropylmethoxy-thiazol-4-yl)-6-fluoro-phenoxy]-butyric acid]
200 to 2000 nM	COc1ccc(-c2cc(F)c(N(C)CCCC(=O)O)c(F)c2)nc1OCC1CC1 [Example 461, 4-[4-[6-(cyclopropylmethoxy)-5-methoxy-2-pyridyl]-2,6-difluoro-N-methyl-anilino]butanoic acid]
< 200 nM	COc1ccc(-c2cc(F)c(OCCCC(=O)O)c(Cl)c2)cc1OCC1CC1 [Example 407, 4-(5-chloro-3′-cyclopropylmethoxy-3-fluoro-4′-methoxy-biphenyl-4-yloxy)-butyric acid]
200 to 2000 nM	Cc1cc(OCC2CC2)nc(-c2cc(F)c(N3CCC(CC(=O)O)CC3)c(F)c2)n1 [Example 331, 2-[1-[4-[4-(cyclopropylmethoxy)-6-methyl-pyrimidin-2-yl]-2,6-difluoro-phenyl]-4-piperidyl]acetic acid]
